The series in a line: In vivo pharmacokinetic study after intragastric administration in rats. To be noted: both sexes, Wistar, rat, po, 25 mg·kg^−1 of ABZ. The method, then: Eighteen Wistar rats were selected and divided into three groups, with half of them being male and the other half being female. Each group was given a dose of 25 mg·kg^−1 of ABZ by intragastric administration. Blood samples of 200–500 μL were collected from each rat at 0.5, 1, 2, 4, 6, 8, 10, 12, and 24 h after administration and were placed into pre-prepared anticoagulant centrifuge tubes. The samples were centrifuged at 13,000 rpm for 10 min, and the upper plasma was collected and stored at −80 °C in an ultra-low temperature refrigerator.
For sample preparation, plasma was thawed, and 50 μL of plasma was mixed with 150 μL of methanol. The mixture was vortexed for 1 min and then centrifuged at 13,000 rpm for 10 min. The supernatant (135 μL) was collected, followed by the addition of 200 ng·mL^−1 mebendazole as the internal standard. The sample was vortexed for 1 min and then filtered through a microporous membrane. The drug content was quantified using UHPLC-MS/MS (UltiMate 3000 and Q-Exactive Orbitrap MS, Thermo Scientific, USA). Pharmacokinetic parameters were calculated using DAS 2.0 software.
Chromatographic conditions: An Accucore aQ UHPLC column (150 mm × 2.1 mm × 2.5 μm) was used. The column temperature was maintained at 40 ± 1 °C, and the sample tray was kept at 15 ± 0.5 °C. The mobile phase consisted of acetonitrile (A) and water with 0.1% formic acid (B). The elution gradient was as follows: 0–5 min, 95% B. The injection volume was 1 μL, and the flow rate was set to 0.3 mL·min^−1.
Mass spectrometry conditions: Electrospray ionization (ESI) was used with high-purity nitrogen (purity > 99.9%) as the carrier gas. The sheath gas flow rate was 35 Arb, and the auxiliary gas flow rate was 10 Arb. The capillary temperature was set to 320 °C, with the ion lens (S-lens RF level) voltage frequency at 60. The spray voltage was 3.0 kV (positive mode), and full MS positive switching scanning mode was employed, with a scanning range of 150–800.

`CCCSc1ccc2nc(NC(=O)OC)[nH]c2c1` [ABZ, albendazole] showed a half-life (in vivo, n = 6) of 2 ± 0.38 h. Also, under “plasma, n = 6”, the AUC(0-inf) was determined as 220 ± 25.3 ng·h/mL, the area under the curve AUC(0-t) turned out to be 216 ± 27.6 ng·h/mL, the Cmax worked out at 34.1 ± 5.19 ng/mL and the time of peak concentration (Tmax) amounted to 2 ± 0.38 h. Moreover, the MRT last (plasma, n = 6, read-out: MRT0–t) worked out at 6.16 ± 0.36 h. Also, the MRT inf (plasma, n = 6, read-out: MRT0–∞) came to 6.55 ± 0.37 h.

Usually half-life stands for the time needed for the level to fall by half in the phase considered. Low readings indicate rapid decline, high ones slow decline. Broadly, the AUC(0-inf) is total exposure, with the tail of the curve extrapolated. Higher therefore signals high exposure. A word on the AUC(0-t): it is the area under the concentration-time curve up to a stated or last time point. A low value points to low exposure. By Cmax is commonly meant the highest concentration seen after dosing. As a reminder, the Tmax is the time from dosing to the highest level.

The record behind these values is PMC12195660, “Preparation and Evaluation of an Oral Administration System of Albendazole-Metal-Organic Framework Based on Dual Response to pH and Enzymes” (Pharmaceuticals, 2025).
